The text below walks through data of patent US8637537B2, “Serine/threonine kinase inhibitors” (Genentech, Inc., priority 2011, dated 2014).

By Ki is commonly meant a dissociation constant, usually derived from enzyme kinetics or from competition with a known ligand.

The structures appear in SMILES notation.

One assay deals with T1, human recombinant GST-PAK1-KD protein (Homo sapiens, UniProt Q13153).
T1 construct: residues #249-545 of human PAK1, UniProtKP/Swiss Q13153; His6 (N); made in house; host or cells: Sf9 insect cells, pAcGP67 baculovirus expression vector
T1 sequence (Q13153 249-545): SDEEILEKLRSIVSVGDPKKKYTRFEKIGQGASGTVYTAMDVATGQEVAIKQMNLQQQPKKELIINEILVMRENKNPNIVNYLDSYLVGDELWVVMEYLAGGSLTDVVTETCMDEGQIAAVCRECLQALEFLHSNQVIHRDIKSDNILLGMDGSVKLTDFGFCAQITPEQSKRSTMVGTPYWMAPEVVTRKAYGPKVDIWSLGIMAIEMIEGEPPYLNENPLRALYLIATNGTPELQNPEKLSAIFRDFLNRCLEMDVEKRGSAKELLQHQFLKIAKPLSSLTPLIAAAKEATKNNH
The assay can be described thus: GST-PAK1-KD (kinase domain) biochemical assay, microfluidic mobility shift.
Conditions: not given
The procedure:
Activity of human recombinant GST-PAK1-KD protein was assessed in vitro assay by observing the phosphorylation of a fluorogenic peptide substrate.
The peptide substrate is a consensus sequence based on various PAK1 substrates reported in the scientific literature. […] Incubations were carried out at 22° C. in MatriCal MP101 384-well Metriplates™. […] Following the 30-minute incubation, the assay mixtures were quenched by the addition of 3 μL of 250 mM EDTA, and the substrate and phosphorylated product were separated by capillary electrophoresis and detected using LabChip® Caliper 3000 (Caliper Life Sciences).
Take `c1cc(Nc2cc(C3CC3)[nH]n2)nc(NCc2ccc3[nH]cnc3c2)n1` [I-13, N^2-((1H-Benzo[d]imidazol-5-yl)methyl)-N^4-(5-cyclopropyl-1H-pyrazol-3-yl)pyrimidine-2,4-diamine]: the inhibition constant (Ki) is < 50 nM.

The assay is the same for the next values; noted with them: Ki, Table I, PAK1 Ki class.
As for `C[C@H](Nc1nccc(Nc2cc(C3CC3)[nH]n2)n1)c1ccc2[nH]cnc2c1` [I-5, N^2-[(1S)-1-(1H-Benzimidazol-5-yl)ethyl]-N^4-(5-cyclopropyl-1H-pyrazol-3-yl)pyrimidine-2,4-diamine], the Ki is < 50 nM.

The same assay, now with this note: Table I, PAK1 Ki class; read-out: Ki.
`c1cc(CNc2nccc(Nc3cc(OCC4CC4)[nH]n3)n2)c2cc[nH]c2c1` [I-42, N^2-((1H-indol-4-yl)methyl)-N^4(5-(cyclopropylmethoxy)-1H-pyrazol-3-yl)pyrimidine-2,4-diamine]: the inhibitory constant (Ki) lay within 250 to 1000 nM.

On to `c1cc(CNc2nccc(Nc3cc(C4CCC4)[nH]n3)n2)c2cc[nH]c2c1` [I-36, N^2-((1H-indol-4-yl)methyl)-N^4-(5-cyclobutyl-1H-pyrazol-3-yl)pyrimidine-2,4-diamine], for which the Ki was < 50 nM.

Regarding `Cc1cnc(NCc2ccc3[nH]cnc3c2)nc1Nc1cc(C2CC2)[nH]n1` [I-32, N^2-(1H-Benzoimidazol-5-ylmethyl)-N^4-(5-cyclopropyl-1H-pyrazol-3-yl)-5-methyl-pyrimidine-2,4-diamine], the Ki lay within 250 to 1000 nM.

With `C[C@H](Nc1nccc(Nc2cc([C@H]3C[C@@H]3c3ccccc3)[nH]n2)n1)c1ccc2[nH]cnc2c1` (stereo in doubt) [I-24, N^2—((S)-1-(1H-benzo[d]imidazol-5-yl)ethyl)-N^4-(5-((trans)-2-phenylcyclopropyl)-1H-pyrazol-3-yl)pyrimidine-2,4-diamine], the inhibitory constant (Ki) lay in the range of 50 to 250 nM.

In the case of `C[C@H](Nc1nccc(Nc2cc(C3CCCC3)[nH]n2)n1)c1ccc2[nH]cnc2c1` [I-2, (S)—N^2-(1-(1H-benzo[d]imidazol-5-yl)ethyl)-N^4-(5-cyclopentyl-1H-pyrazol-3-yl)pyrimidine-2,4-diamine], the Ki is < 50 nM.

In the case of `C[C@H](Nc1nccc(Nc2cc([C@H]3C[C@H]3F)[nH]n2)n1)c1ccc2[nH]cnc2c1` [I-68, N^2—((S)-1-(1H-benzo[d]imidazol-5-yl)ethyl)-N^4-(5-((1R,2R)-2-fluorocyclopropyl)-1H-pyrazol-3-yl)pyrimidine-2,4-diamine], the Ki is < 50 nM.

Take `Cc1cc(Nc2cc(C3CC3)[nH]n2)nc(NCc2ccc3[nH]cnc3c2)n1` [I-10, N^2-((1H-benzo[d]imidazol-5-yl)methyl)-N^4-(5-cyclopropyl-1H-pyrazol-3-yl)-6-methylpyrimidine-2,4-diamine]: the Ki is < 50 nM.

Take `C[C@H](Nc1nc(Nc2cc(C3CC3)[nH]n2)cc(C(C)(C)O)n1)c1ccc2[nH]ccc2c1` [I-83, (S)-2-(2-(1-(1H-indol-5-yl)ethylamino)-6-(5-cyclopropyl-1H-pyrazol-3-ylamino)pyrimidin-4-yl)propan-2-ol]: the Ki was < 50 nM.

For `F[C@@H]1C[C@H]1c1cc(Nc2ccnc(NCc3ccc4[nH]cnc4c3Cl)n2)n[nH]1` [I-78, N^2-((4-chloro-1H-benzo[d]imidazol-5-yl)methyl)-N^4-(5-((1S,2R)-2-fluorocyclopropyl)-1H-pyrazol-3-yl)pyrimidine-2,4-diamine], the Ki is < 50 nM.

For `Clc1c(CNc2nccc(Nc3cc(C4CCCC4)[nH]n3)n2)ccc2[nH]cnc12` [I-107, N^2-((4-chloro-1H-benzo[d]imidazol-5-yl)methyl)-N^4-(5-cyclopentyl-1H-pyrazol-3-yl)pyrimidine-2,4-diamine], the Ki is < 50 nM.

With `Cc1cc(CNc2nccc(Nc3cc(C4CC4)[nH]n3)n2)cc2nc[nH]c12` [I-26, N^4-(5-Cyclopropyl-1H-pyrazol-3-yl)-N^2-((7-methyl-1H-benzo[d]imidazol-5-yl)methyl)-pyrimidine-2,4-diamine], the Ki lay in the range of 50 to 250 nM.

`Clc1c(CNc2nccc(Nc3cc(C4CCC4)[nH]n3)n2)ccc2[nH]cnc12` [I-108, N^2-((4-chloro-1H-benzo[d]imidazol-5-yl)methyl)-N^4-(5-cyclobutyl-1H-pyrazol-3-yl)pyrimidine-2,4-diamine]: the inhibitory constant (Ki) is < 50 nM.

On to `C[C@H](Nc1nccc(Nc2cc([C@@H]3C[C@H]3F)[nH]n2)n1)c1ccc2[nH]ccc2c1` [I-72, N^2—((S)-1-(1H-indol-5-yl)ethyl)-N^4-(5-((1S,2R)-2-fluorocyclopropyl)-1H-pyrazol-3-yl)pyrimidine-2,4-diamine], for which the Ki is < 50 nM.

With `C[C@H](Nc1nccc(Nc2cc(C3CCOC3)[nH]n2)n1)c1ccc2[nH]cnc2c1` (stereo partly drawn) [I-14, N^2—((S)-1-(1H-benzo[d]imidazol-5-yl)ethyl)-N^4-(5-(tetrahydrofuran-3-yl)-1H-pyrazol-3-yl)pyrimidine-2,4-diamine], the inhibition constant Ki was < 50 nM.

For the compound `C[C@@H](Nc1ncc(F)c(Nc2cc(C3CC3)[nH]n2)n1)c1cccc2[nH]ccc12` [I-100, N^4-(5-cyclopropyl-1H-pyrazol-3-yl)-5-fluoro-N^2-[(1R)-1-(1H-indol-4-yl)ethyl]pyrimidine-2,4-diamine], the inhibitory constant (Ki) is > 1000 nM.

The same assay, now with this note: Table II, PAK1 Ki class; read-out: Ki.
Turning to `CC(C)N(Cc1cc(F)cc2[nH]ncc12)c1nccc(Nc2cc(C3CC3)[nH]n2)n1` [II-63, N^4-(5-cyclopropyl-1H-pyrazol-3-yl)-N^2-((6-fluoro-1H-indazol-4-yl)methyl)-N^2-isopropylpyrimidine-2,4-diamine], the inhibitory constant (Ki) was < 50 nM.

For the compound `C[C@@H](Oc1cc(Nc2ccnc(N(C)Cc3ccc4[nH]cnc4c3Cl)n2)n[nH]1)c1ccccc1` [II-21, (R)-N^2-((4-Chloro-1H-benzo[d]imidazol-5-yl)methyl)-N^2-methyl-N^4-(5-(1-phenylethoxy)-1H-pyrazol-3-yl)pyrimidine-2,4-diamine], the inhibitory constant (Ki) is < 50 nM.

With `Cc1n[nH]c2cccc(CN(C)c3nccc(Nc4cc(C5CC5)[nH]n4)n3)c12` [II-19, N^4-(5-Cyclopropyl-1H-pyrazol-3-yl)-N^2-methyl-N^2-((3-methyl-1H-indazol-4-yl)methyl)pyrimidine-2,4-diamine], the inhibitory constant (Ki) was < 50 nM.

Regarding `COc1cc(Nc2ccnc(N(C)Cc3ccc4[nH]cnc4c3Cl)n2)n[nH]1` [II-29, N^2-((4-Chloro-1H-benzo[d]imidazol-5-yl)methyl)-N^4-(5-methoxy-1H-pyrazol-3-yl)-N^2-methylpyrimidine-2,4-diamine], the Ki was 50 to 250 nM.

Consider `Cc1cc2[nH]cnc2cc1[C@H](C)Nc1nccc(Nc2cc(C3CC3)[nH]n2)n1` [II-31, (S)-N^4-(5-Cyclopropyl-1H-pyrazol-3-yl)-N^2-(1-(6-methyl-1H-benzo[d]imidazol-5-yl)ethyl)pyrimidine-2,4-diamine], for which the inhibition constant (Ki) lay within 50 to 250 nM.

On to `CN(C)CCN(Cc1cccc2[nH]ccc12)c1nccc(Nc2cc(C3CC3)[nH]n2)n1` [II-89, N^2-((1H-indol-4-yl)methyl)-N^4-(5-cyclopropyl-1H-pyrazol-3-yl)-N^2-(2-(dimethylamino)ethyl)-pyrimidine-2,4-diamine], for which the Ki is < 50 nM.

As for `Fc1cc(CNc2nccc(Nc3cc(C4CC4)[nH]n3)n2)c2cn[nH]c2c1` [II-52, N^4-(5-cyclopropyl-1H-pyrazol-3-yl)-N^2-((6-fluoro-1H-indazol-4-yl)methyl)pyrimidine-2,4-diamine], the Ki was < 50 nM.

Regarding `Fc1cc(CNc2nccc(Nc3cc([C@@H]4C[C@H]4F)[nH]n3)n2)c2cn[nH]c2c1` [II-64, N^2-((6-fluoro-1H-indazol-4-yl)methyl)-N^4-(5-((1S,2R)-2-fluorocyclopropyl)-1H-pyrazol-3-yl)pyrimidine-2,4-diamine], the Ki is < 50 nM.

On to `CN(C)CCN(Cc1cccc2[nH]ccc12)c1nccc(Nc2cc([C@@H]3C[C@H]3F)[nH]n2)n1` [II-83, N^2-((1H-indol-4-yl)methyl)-N^2-(2-(dimethylamino)ethyl)-N^4-(5-((1S,2R)-2-fluorocyclopropyl)-1H-pyrazol-3-yl)pyrimidine-2,4-diamine], for which the inhibition constant Ki was < 50 nM.

Regarding `c1cc(Nc2cc(C3CC3)[nH]n2)nc(N(Cc2ccc3[nH]cnc3c2)C2CCNCC2)n1` [II-90, N^2-((1H-benzo[d]imidazol-5-yl)methyl)-N^4-(5-cyclopropyl-1H-pyrazol-3-yl)-N^2-(piperidin-4-yl)pyrimidine-2,4-diamine], the Ki is < 50 nM.

Take `CCN(Cc1ccc2[nH]cnc2c1)c1ncc(F)c(Nc2cc(C3CC3)[nH]n2)n1` [II-104, N^2-((1H-benzo[d]imidazol-5-yl)methyl)-N^4-(5-cyclopropyl-1H-pyrazol-3-yl)-N^2-ethyl-5-fluoropyrimidine-2,4-diamine]: the Ki was in the range of 50 to 250 nM.

Consider `CN(Cc1cccc2[nH]ncc12)c1ncc(F)c(Nc2cc(C3CC3)[nH]n2)n1` [II-93, N^2-((1H-indazol-4-yl)methyl)-N^4-(5-cyclopropyl-1H-pyrazol-3-yl)-5-fluoro-N^2-methylpyrimidine-2,4-diamine], for which the Ki is < 50 nM.

Take `COCCN(Cc1ccc2[nH]cnc2c1)c1nccc(Nc2cc(C3CC3)[nH]n2)n1` [II-35, N^2-((1H-benzo[d]imidazol-5-yl)methyl)-N^4-(5-cyclopropyl-1H-pyrazol-3-yl)-N^2-(2-methoxyethyl)pyrimidine-2,4-diamine]: the inhibitory constant (Ki) is 50 to 250 nM.

As to `Fc1cc(CNc2ncc(Cl)c(Nc3cc(C4CC4)[nH]n3)n2)c2cn[nH]c2c1` [II-106, 5-chloro-N^4-(5-cyclopropyl-1H-pyrazol-3-yl)-N^2-((6-fluoro-1H-indazol-4-yl)methyl)pyrimidine-2,4-diamine], the Ki was in the range of 50 to 250 nM.

Take `CCc1cc(Nc2nc(N(C)Cc3ccc4[nH]cnc4c3Cl)ncc2F)n[nH]1` [II-69, N^2-((4-chloro-1H-benzo[d]imidazol-5-yl)methyl)-N^4-(5-ethyl-1H-pyrazol-3-yl)-5-fluoro-N^2-methylpyrimidine-2,4-diamine]: the inhibitory constant (Ki) is 250 to 1000 nM.
